Measurements taken from patent US20230365590A1, “BIPHENYL COMPOUND AS IMMUNOMODULATOR, PREPARATION METHOD THEREFOR AND APPLICATION THEREOF” (SHENZHEN CHIPSCREEN BIOSCIENCES CO., LTD., priority 2020, published 2023).

What follows are molecules tested on PD-1/PD-L1 mediated inhibitory signal to T cell activation (CHO-PD-L1-CD3L cells and Jurkat-PD-1-NFAT cells) (assay: Blocking of PD-1/PD-L1 mediated inhibitory signal to T cell activation at cell level (NFAT luciferase reporter, co-culture)). Conditions: Homo sapiens, CHO-PD-L1-CD3L / Jurkat-PD-1-NFAT co-culture, 6 h.
Format: cell-based
Method: In order to test the effect of interaction between PD-1 and PD-L1 on T cell activation signal in immune response, CHO-PD-L1-CD3L cells stably expressing human PD-L1 molecule and anti-CD3 single-chain antibody (ScFv) and Jurkat-PD-1-NFAT cells stably expressing human PD-1 molecule and NFAT reporter gene were constructed. When two kinds of cells are incubated together, anti-CD3 ScFv on the CHO cell surface and membrane CD3 molecule of Jurkat cell combine to transmit an activation signal into Jurkat cell. However, due to the binding of PD-L1 on the CHO cell surface and PD-1 molecule on the Jurkat cell surface at the same time, a signal for inhibiting activation is transmitted inward, so that luciferase reporter gene cannot be expressed. When an immunocheckpoint antibody or small-molecule inhibitor is added, the binding of PD-1 and PD-L1 is blocked, the NFAT pathway activated by CD3 ScFv antibody and CD3 cross-linking mediated T cell activation signal is no longer affected by the inhibitory signal, and the downstream luciferase reporter gene starts to be expressed. Chemiluminescence signals proportional to reporter gene activation can be detected by adding a catalytic substrate.
CHO-PD-L1-CD3L cells expressing human PD-L1 molecule and anti-CD3 single-chain antibody (ScFv) and Jurkat-PD-1-NFAT cells stably expressing human PD-1 molecule and NFAT reporter gene were all independently constructed and presented by Dr. Chen Bo (KeyMed Biosciences (Chengdu) Co., Ltd. Puromycin (Cat # 540411) and Hygromycin B (Cat # V900372) for stable culture of transfected cells were purchased from Sigma, PMA (Cat # P1585) was purchased from Sigma, and the anti human PD-L1 antibody (Cat # GMP-A066) was purchased from Novoprotein Company. The Luciferase substrate solution (Cat # E6485) and the luciferase-specific cell lysate 5×(Cat # E1531) were purchased from Promega company. The fluorescence detector Tecan (Spark 10M) was purchased from Tecan Company in Switzerland.
Main Process of Experiment • (1) On the day before the experiment, 100 μL of CHO-PD-L1-CD3L cells (about 4×10^4 cells/well) were inoculated at 37° C. overnight in a 96-well cell culture plate, and the culture medium was DMEM/F12 containing 10% FBS, 8 μg/mL Puromycin and 200 μg/mL Hygromycin B. • (2) The test compound was diluted with 0.1% PBST to obtain solutions with different concentration gradients, and then added into 96-well plates and incubated for 30 min in advance. The RPMI 1640 complete medium containing 10% FBS, 8 μg/mL Puromycin and 200 μg/mL Hygromycin B was used to adjust the Jurkat-PD-1-NFAT cell count to 2×10^5 cells/mL, and 100 ng/mL PMA (10 mg/mL storage solution prepared with DMSO) was added to amplify the T cell activation signal. 100 μL of the Jurkat-PD-1-NFAT cells were added into each well of the 96-well plates for co-culture. • (3) During the test reaction, control groups were set, including the solvent control without adding the test compound and the positive control with the addition of the […] in the experimental system. All tests were conducted by use of multiple holes. • (4) Incubation was continued at 37° C. for 6 h, 40 μL of 5×cell lysate was added directly, the solution was mixed well and placed at room temperature for 10 min to completely lyse cells. 50 μL of lysed cell solution was transferred to a fluorescence detection plate, 30 μL of luciferase substrate solution was then added, and the chemiluminescence detection program was immediately selected on the fluorescence detector for determination. • (5) Calculation formula of the inhibition rate of the test compound against T cell activation signal at the cell level: The inhibition rate against T cell activation signal (%)=(original chemiluminescence value of the test hole−solvent control)/(the highest original chemiluminescence value determined in the compound test hole−solvent control)×100%. […]

In order of falling EC50:
1. Cn1c(C(=O)Nc2cccc(-c3cccc(NC(=O)c4nc5c(n4C)CCN(CCC46CCC(C(=O)O)(CC4)C6)C5)c3Cl)c2Cl)nc2c1CCN(CCC13CCC(COC(F)F)(CC1)C3)C2 [Compound I-7, 4-(2-(2-((2,2′-dichloro-3′-(5-(2-(4-((difluoromethoxy)methyl)bicyclo[2.2.1]heptan-1-yl)ethyl)-1-methyl-4,5,6,7-tetrahydro-1H-imidazo[4,5-c]pyridine-2-carboxamido)-[1,1′-biphenyl]-3-yl)carbamoyl)-1-methyl-1,4,6,7-tetrahydro-5H-imidazo[4,5-c]pyridin-5-yl)ethyl)bicyclo[2.2.1]heptane-1-carboxylic acid]  39.2 nM
2. Cn1c(C(=O)Nc2cccc(-c3cccc(NC(=O)c4nc5c(n4C)CCN(CCC46CCC(C(=O)O)(CC4)C6)C5)c3Cl)c2F)nc2c1CCN(CCC13CCC(COC(F)F)(CC1)C3)C2 [Compound I-10, 4-(2-(2-((2-chloro-3′-(5-(2-(4-((difluoromethoxy)methyl)bicyclo[2.2.1]heptan-1-yl)ethyl)-1-methyl-4,5,6,7-tetrahydro-1H-imidazo[4,5-c]pyridine-2-carboxamido)-2′-fluoro-[1,1′-biphenyl]-3-yl)carbamoyl)-1-methyl-1,4,6,7-tetrahydro-5H-imidazo[4,5-c]pyridin-5-yl)ethyl)bicyclo[2.2.1]heptane-1-carboxylic acid]  35.5 nM
3. COCC12CCC(CCCN3CCc4c(nc(C(=O)Nc5cccc(-c6cccc(NC(=O)c7nc8c(n7C)CCN(CCC79CCC(C(=O)O)(CC7)C9)C8)c6C)c5Cl)n4C)C3)(CC1)C2 [Compound I-1, 4-(2-(2-((2′-chloro-3′-(5-(3-(4-(methoxymethyl)bicyclo[2. 2.1]heptan-1-yl)propyl)-1-methyl-4,5,6,7-tetrahydro-1H-imidazo[4,5-c]pyridine-2-carboxamido) -2-methyl-[1,1′-biphenyl]-3-yl)carbamoyl)-1-methyl-1,4,6,7-tetrahydro-5H-imidazo[4,5-c]pyridin-5-yl)ethyl)bicyclo[2.2.1]heptane-1-carboxylic acid]  33.9 nM
4. COCC12CCC(CN3CCc4c(nc(C(=O)Nc5cccc(-c6cccc(NC(=O)c7nc8c(n7C)CCN(CCC79CCC(C(=O)O)(CC7)C9)C8)c6Cl)c5Cl)n4C)C3)(CC1)C2 [Compound I-8, 4-(2-(2-((2,2′-dichloro-3′-(5-((4-(methoxymethyl)bicyclo[2.2.1]heptan-1-yl)methyl)-1-methyl-4,5,6,7-tetrahydro-1H-imidazo[4,5-c]pyridine-2-carboxamido)-[1, 1′-biphenyl]-3-yl)carbamoyl)-1-methyl-1,4,6,7-tetrahydro-5H-imidazo[4,5-c]pyridin-5-yl)ethyl)bicyclo[2.2.1]heptane-1-carboxylic acid]  30.3 nM
5. COCC12CCC(CCN3CCc4c(nc(C(=O)Nc5cccc(-c6cccc(NC(=O)c7nc8c(n7C)CCN(CCC79CCC(C(=O)O)(CC7)C9)C8)c6C)c5Cl)n4C)C3)(CC1)C2 [Compound I-4, 4-(2-(2-((2′-chloro-3′-(5-(2-(4-(methoxymethyl)bicyclo[2. 2.1]heptan-1-yl)ethyl)-1-methyl-4,5,6,7-tetrahydro-1H-imidazo[4,5-c]pyridine-2-carboxamido)-2-methyl-[1 ,1′-biphenyl]-3-yl)carbamoyl)-1-methyl-1,4,6,7-tetrahydro-5H-imidazo[4,5-c]pyridin-5-yl)ethyl)bicyclo[2.2.1]heptane-1-carboxylic acid]  28.3 nM
6. COCC12CCC(CCN3CCc4c(nc(C(=O)Nc5cccc(-c6cccc(NC(=O)c7nc8c(n7C)CCN(CCC79CCC(C(=O)O)(CC7)C9)C8)c6Cl)c5C)n4C)C3)(CC1)C2 [Compound I-5, 4-(2-(2-((2-chloro-3′-(5-(2-(4-(methoxymethyl)bicyclo[2.2.1]heptan-1-yl)ethyl)-1-methyl-4,5,6,7-tetrahydro-1H-imidazo[4,5-c]pyridine-2-carboxamido)-2′-methyl-[1,1′-biphenyl]-3-yl)carbamoyl)-1-methyl-1,4,6,7-tetrahydro-5H-imidazo [4,5-c]pyridin-5-yl)ethyl)bicyclo[2.2.1]heptane-1-carboxylic acid]  26.7 nM
7. COCC12CCC(CCN3CCc4c(nc(C(=O)Nc5cccc(-c6cccc(NC(=O)c7nc8c(n7C)CCN(CCC79CCC(C(=O)O)(CC7)C9)C8)c6Cl)c5C#N)n4C)C3)(CC1)C2 [Compound I-11, 4-(2-(2-((2-chloro-2′-cyano-3′-(5-(2-(4-(methoxymethyl)bicyclo[2.2.1]heptan-1-yl)ethyl)-1-methyl-4,5,6,7-tetrahydro-1H-imidazo[4,5-c]pyridine-2-carboxamido)-[1,1′-biphenyl]-3-yl)carbamoyl)-1-methyl-1,4,6,7-tetrahydro-5H-imidazo[4,5-c]pyridin-5-yl)ethyl)bicyclo[2.2.1]heptane-1-carboxylic acid]  26.3 nM
8. COCC12CCC(CCCN3CCc4c(nc(C(=O)Nc5cccc(-c6cccc(NC(=O)c7nc8c(n7C)CCN(CCC79CCC(C(=O)O)(CC7)C9)C8)c6Cl)c5C)n4C)C3)(CC1)C2 [Compound I-2, 4-(2-(2-((2-chloro-3′-(5-(3-(4-(methoxymethyl)bicyclo[2.2.1]heptan-1-yl)propyl)-1-methyl-4,5,6,7-tetrahydro-1H-imidazo[4,5-c]pyridine-2-carboxamido)-2′-methyl-[1,1′-biphenyl]-3-yl)carbamoyl)-1-methyl-1,4,6,7-tetrahydro-5H-imidazo[4,5-c]pyridin-5-yl)ethyl)bicyclo[2.2.1]heptane-1-carboxylic acid]  18.1 nM
9. CCOCC12CCC(CCN3CCc4c(nc(C(=O)Nc5cccc(-c6cccc(NC(=O)c7nc8c(n7C)CCN(CCC79CCC(C(=O)O)(CC7)C9)C8)c6C)c5Cl)n4C)C3)(CC1)C2 [Compound I-3, 4-(2-(2-((2′-chloro-3′-(5-(2-(4-(ethoxymethyl)bicyclo[2.2.1]heptan-1-yl)ethyl)-1-methyl-4,5 ,6,7-tetrahydro-1H-imidazo[4,5-c]pyridine-2-carboxamido)-2-methyl-[1,1′-biphenyl]-3-yl)carbamoyl)-1-methyl-1,4,6,7-tetrahydro-5H-imidazo[4,5-c]pyridin-5-yl)ethyl)bicyclo[2.2.1]heptane-1-carboxylic acid]  17 nM
10. COCC12CCC(CCN3CCc4c(nc(C(=O)Nc5cccc(-c6cccc(NC(=O)c7nc8c(n7C)CCN(CCC79CCC(C(=O)O)(CC7)C9)C8)c6Cl)c5Cl)n4C)C3)(CC1)C2 [Compound I-6, 4-(2-(2-((2,2′-dichloro-3′-(5-(2-(4-(methoxymethyl)bicyclo[2.2.1]heptan-1-yl)ethyl)-1-methyl-4,5,6,7-tetrahydro-1H-imidazo[4,5-c]pyridine-2-carboxamido)-[1, 1′-biphenyl]-3-yl)carbamoyl)-1-methyl-1,4,6,7-tetrahydro-5H-imidazo[4,5-c]pyridin-5-yl)ethyl)bicyclo[2.2.1]heptane-1-carboxylic acid]  15.8 nM
11. COCC12CCC(CCN3CCc4c(nc(C(=O)Nc5cccc(-c6cccc(NC(=O)c7nc8c(n7C)CCN(CCC79CCC(C(=O)O)(CC7)C9)C8)c6Cl)c5F)n4C)C3)(CC1)C2 [Compound I-9, 4-(2-(2-((2-chloro-2′-fluoro-3′-(5-(2-(4-(methoxymethyl)bicyclo[2.2.1]heptan-1-yl)ethyl)-1-methyl-4,5,6,7-tetrahydro-1H-imidazo [4,5-c]pyridine-2-carboxamido)-[1,1′-biphenyl]-3-yl)carbamoyl)-1-methyl-1,4,6,7-tetrahydro-5H-imidazo[4,5-c]pyridin-5-yl)ethyl)bicyclo[2.2.1]heptane-1-carboxylic acid]  6.79 nM
